Results reported in patent US20190209506A1, “METHODS OF REDUCING OR PREVENTING OXIDATION OF LDL OR LIPID MEMBRANES IN A SUBJECT IN NEED THEREOF” (Amarin Pharmaceuticals Ireland Limited, priority 2018, published 2019).
Where “and” joins values, the source holds several entries; their conditions need not be identical. Identical values can stand only once.

Key:
[1] = test system: human sdLDL; test: Copper-induced sdLDL oxidation (Example 12); format: biochemical; settings: 10.0 μM; copper-induced oxidation 1 hour
Experimental: All samples, with the exception of non-oxidized sdLDL controls, were subjected to copper-induced oxidation for 1 hour. Human umbilical vein endothelial cells (HUVECs) were incubated with the various sdLDL samples, stimulated with calcium, and monitored for nitric oxide (NO) and peroxynitrite (ONOO^−) release using nanosensor technology.

[2] = test system: human LDL; test: Copper-induced LDL oxidation, dose and time dependence, MDA (Example 17); format: biochemical
Experimental: LDL was isolated from human plasma by isopycnic centrifugation, separated into test samples of 100 μg/mL, and incubated at 37° C. for 30 min in the absence (vehicle) or presence of EPA over a range of concentrations of 1 to 10 μM. The samples were subsequently subjected to copper-induced oxidation. Following the copper-induced oxidation, LDL oxidation was measured over the course of six hours. Tables 8 and 9 enumerate the changes in MDA concentration expressed as molar equivalents for each of the vehicle and EPA test samples as a function of time (i.e., at 0 hours, 1 hour, 2 hours, 2.5 hours, and 3 hours).

[3] = Membrane cholesterol domain structural integrity, x-ray diffraction (Example 9); settings: C/P 1.5:1
Experimental: Multilamellar vesicles (MLVs) were prepared as binary mixtures that include palmitoyloleoylphosphatidylcholine (POPC) (1.0 mg total phospholipid per sample) and cholesterol at an elevated cholesterol-to-phospholipid (C/P) mole ratio of 1.5:1. […] Samples were shell-dried under nitrogen gas and placed under vacuum for 3 hours to remove residual solvent at room temperature. After desiccation, each sample was resuspended in saline buffer (0.5 mM HEPES, 154 mM NaCl, pH 7.3) to yield a final phospholipid concentration of 2.5 mg/mL. Lipid suspensions were then vortexed for 3 minutes at ambient temperature to form MLVs.
Briefly, a 100 μL aliquot of each MLV preparation (containing 250 μg MLV) was transferred to a Lucite® sedimentation cell fitted with an aluminum foil substrate designed to collect MLVs into a single membrane pellet upon centrifugation. Samples were then loaded into a Sorvall AH-629 swinging bucket rotor (DuPont Corp., Wilmington, Del.) and centrifuged at 35,000 g, 5° C., for 90 minutes.
After centrifugal orientation, sample supernatants were aspirated and aluminum foil substrates, each supporting a single membrane pellet, were removed from the sedimentation cells. Sample pellets were dried for 5-10 minutes at ambient conditions, mounted onto curved glass supports, and placed in hermetically-sealed, brass or glass containers (for immediate analysis or temporary storage, respectively). All x-ray diffraction experiments were conducted at 20° C., 74% relative humidity. The latter was established by exposing membrane samples to saturated solutions of […] (K2C4H4O6.½H2O) for at least 1 hour prior to experimental analysis.
Oriented membrane samples were aligned at grazing incidence with respect to a collimated, mono-chromatic CuKα x-ray beam (Kα1 and Kα2 unresolved; λ=1.54 Å) produced by a Rigaku Rotaflex RU-200, high-brilliance microfocus generator (Rigaku-MSC, The Woodlands, Tex.) as previously described (Mason et al., Biophys. J., vol. 55(4), pages 769-778 (1989)). The samples were initially subjected to x-ray diffraction analysis at least 12 hours after formation of the membrane pellets and retested for up to several days. Analytical x-rays were generated by electron bombardment of a rotating copper anode and are filtered through a thin nickel foil to provide monochromatic radiation (λ=1.54 Å). Collimation of the x-ray beam was achieved using a single Franks mirror. Diffraction data were collected on a one-dimensional, position-sensitive electron detector (Hecus X-ray Systems, Graz, Austria) at a sample-to-detector distance of 150 mm from the sample site.
The d-space for any given membrane multi bilayer is a measurement of the unit cell periodicity of the membrane lipid bilayer (e.g., the distance from the center of one lipid bilayer to the next including surface hydration), and is calculated from Bragg's Law, hλ=2d sin θ, where h is the diffraction order, λ is the wavelength of the x-ray radiation (1.54 Å), d is the membrane lipid bilayer unit cell periodicity, and θ is the Bragg angle equal to one-half the angle between the incident beam and scattered beam.
The presence of cholesterol domains in a given membrane sample results in the production of distinct Bragg (diffraction) peaks having singular periodicity values of 34 and 17 Å (typically referred to as first- and second-order cholesterol domain peaks). Under the specific temperature and relative humidity conditions established for these experiments, the second-order, 17 Å cholesterol domain peak was well-delineated from other, neighboring cholesterol and phospholipid diffraction peaks and was thus used to quantitate relative cholesterol domain peak intensity. Routines written in Origin 8.6 (OriginLab Corporation, Northampton, Mass.) were used to determine total peak area (associated with all diffraction peaks in a given pattern) against which the second-order cholesterol domain peak was normalized.

With `CC/C=C\C/C=C\C/C=C\C/C=C\C/C=C\CCCC(=O)O` [EPA, cis-5,8,11,14,17-eicosapentaenoic acid] the “reduction of sdLDL oxidation compared to vehicle” value [1] was > 90%, the “MDA Equivalent” value ([2]; EPA 1.0 μM, 0 Hour) was 0.24 µM and 0.26 µM and the “MDA Equivalent” value ([2]; EPA 1.0 μM, 1 Hour) was 3.85 µM and 3.14 µM and 2.87 µM. The “MDA Equivalent” value ([2]; EPA 1.0 μM, 2 Hour) was 10.33 µM and 10.92 µM and 10.63 µM, the “MDA Equivalent” value ([2]; EPA 1.0 μM, 2.5 Hour) was 10.60 µM and 10.92 µM and 10.65 µM and the “MDA Equivalent” value ([2]; EPA 1.0 μM, 3 Hour) was 9.44 µM and 9.95 µM and 9.93 µM. The “MDA Equivalent” value ([2]; EPA 1.0 μM, 3.5 Hour) was 10.13 µM and 10.87 µM, the “MDA Equivalent” value ([2]; EPA 1.0 μM, 4 Hour) was 8.93 µM and 9.39 µM and the “MDA Equivalent” value ([2]; EPA 1.0 μM, 6 Hour) was 9.79 µM and 10.10 µM. For the same compound, the “MDA Equivalent” value ([2]; EPA 2.0 μM, 0 Hour) was 0.25 µM and 0.26 µM and 0.19 µM, the “MDA Equivalent” value ([2]; EPA 2.0 μM, 1 Hour) was 1.15 µM and 1.04 µM and the “MDA Equivalent” value ([2]; EPA 2.0 μM, 2 Hour) was 7.34 µM and 7.35 µM and 7.67 µM. For the same compound, the “MDA Equivalent” value ([2]; EPA 2.0 μM, 2.5 Hour) was 9.45 µM and 9.62 µM and 9.60 µM, the “MDA Equivalent” value ([2]; EPA 3.0 μM, 0 Hour) was 0.21 µM and 0.22 µM and the “MDA Equivalent” value ([2]; EPA 3.0 μM, 1 Hour) was 0.56 µM and 0.57 µM and 0.53 µM. The “MDA Equivalent” value ([2]; EPA 3.0 μM, 2 Hour) was 1.72 µM and 1.78 µM and 1.74 µM, the “MDA Equivalent” value ([2]; EPA 3.0 μM, 2.5 Hour) was 3.09 µM and 3.01 µM and 2.91 µM and the “MDA Equivalent” value ([2]; EPA 3.5 μM, 0 Hour) was 0.17 µM and 0.26 µM and 0.29 µM. For the same compound, the “MDA Equivalent” value ([2]; EPA 3.5 μM, 2 Hour) was 1.04 µM and 1.05 µM and 0.90 µM, the “MDA Equivalent” value ([2]; EPA 3.5 μM, 2.5 Hour) was 1.16 µM and 1.43 µM and 0.95 µM and the “MDA Equivalent” value ([2]; EPA 4.0 μM, 0 Hour) was 0.19 µM and 0.21 µM and 0.22 µM. The “MDA Equivalent” value ([2]; EPA 4.0 μM, 1 Hour) was 0.37 µM and 0.41 µM and 0.40 µM, the “MDA Equivalent” value ([2]; EPA 4.0 μM, 2 Hour) was 1.00 µM and 0.78 µM and 0.71 µM and the “MDA Equivalent” value ([2]; EPA 4.0 μM, 2.5 Hour) was 1.26 µM and 0.94 µM and 0.80 µM. For the same compound, the “MDA Equivalent” value ([2]; EPA 4.5 μM, 0 Hour) was 0.28 µM and 0.17 µM and 0.18 µM, the “MDA Equivalent” value ([2]; EPA 4.5 μM, 1 Hour) was 0.28 µM and 0.30 µM and 0.21 µM and the “MDA Equivalent” value ([2]; EPA 4.5 μM, 2 Hour) was 0.38 µM and 0.50 µM and 0.44 µM. For the same compound, the “MDA Equivalent” value ([2]; EPA 4.5 μM, 2.5 Hour) was 0.36 µM and 0.19 µM and 0.31 µM, the “MDA Equivalent” value ([2]; EPA 5.0 μM, 0 Hour) was 0.19 µM and 0.26 µM and 0.27 µM and the “MDA Equivalent” value ([2]; EPA 5.0 μM, 2 Hour) was 0.35 µM and 0.33 µM and 0.30 µM. For the same compound, the “MDA Equivalent” value ([2]; EPA 5.0 μM, 2.5 Hour) was 0.22 µM and 0.24 µM and 0.21 µM, the “MDA Equivalent” value ([2]; EPA 10.0 μM, 0 Hour) was 0.21 µM and 0.24 µM and 0.29 µM and the “MDA Equivalent” value ([2]; EPA 10.0 μM, 1 Hour) was 0.12 µM and 0.06 µM. The “MDA Equivalent” value ([2]; EPA 10.0 μM, 2 Hour) was 0.27 µM and 0.29 µM and 0.23 µM, the “MDA Equivalent” value ([2]; EPA 10.0 μM, 2.5 Hour) was 0.01 µM and 0.02 µM and the “inhibition of LDL oxidation” value ([2]; above 7.0 μM, through 6 hours) was > 88%. For the same compound, the IC50 ([2]; at 6 hours, read-out: half-maximum concentration of inhibition of LDL oxidation) was 5 µM, the “time up to which oxidation was inhibited” value ([2]; concentrations ≤3 μM) was “up to 4 hours” and the “% change Vs control (cholesterol domain peak intensity)” value ([3]; D/P mole ratio 1:30) was −65.5 ± 17.1%. The “Relative Cholesterol Domain Peak Intensity” value ([3]; D/P mole ratio 1:30) was 14.6±5, the “reduction in cholesterol domain peaks compared to vehicle” value ([3]; D/P mole ratio 1:30) was 65% and the “% change (vs. Control)” value ([3]; D/P mole ratio 1:60) was −30.2 ± 27.9%. For the same compound, the “Relative Cholesterol Domain Peak Intensity” value ([3]; D/P mole ratio 1:60) was 29.5 ± 10.9, the “% change (vs. Control)” value ([3]; D/P mole ratio 1:90) was −15.0 ± 12.6% and the “Relative Cholesterol Domain Peak Intensity” value ([3]; D/P mole ratio 1:90) was 36.0 ± 3.1.
